In PubChem BioAssay (NCI):
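These data come from cells grown in 96-well plates and exposed to compound for 48 hours at five concentrations. TGI marks complete inhibition of growth.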

Key:
Assay in all cases: NCI anticancer screen, dose series, 48 h
HCT-15 colon = system: HCT-15 colon
NCI-H23 lung = system: NCI-H23 lung
UO-31 renal = system: UO-31 renal
SK-MEL-28 melanoma = system: SK-MEL-28 melanoma
UACC-62 melanoma = system: UACC-62 melanoma
MCF7 breast = system: MCF7 breast
NCI-H460 lung = system: NCI-H460 lung
SNB-75 CNS = system: SNB-75 CNS
MDA-MB-435 = system: MDA-MB-435
A549 NSCLC = system: A549 NSCLC
CAKI-1 renal = system: CAKI-1 renal
SF-295 CNS = system: SF-295 CNS
ACHN renal = system: ACHN renal
EKVX NSCLC = system: EKVX NSCLC
NCI/ADR-RES ovarian = system: NCI/ADR-RES ovarian
BT-549 breast = system: BT-549 breast
DU-145 prostate = system: DU-145 prostate
SW-620 colon = system: SW-620 colon
HL-60(TB) leukemia = system: HL-60(TB) leukemia
MDA-MB-231 breast = system: MDA-MB-231 breast

With `c1ccc(C(C2=Nc3cccc4cccc(c34)N2)c2ccccc2)cc1` the TGI (HCT-15 colon) was 93.6 µM, the TGI (NCI-H23 lung) was > 100 µM and the TGI (UO-31 renal) was 51.2 µM. The TGI (SK-MEL-28 melanoma) was 52 µM, the TGI (UACC-62 melanoma) was 32.8 µM and the TGI (MCF7 breast) was > 100 µM. It also gave a TGI (NCI-H460 lung) of 54.3 µM, a TGI (SNB-75 CNS) of 72.4 µM and a TGI (MDA-MB-435) of 66.1 µM. For the same compound, the TGI (A549 NSCLC) was > 100 µM, the TGI (CAKI-1 renal) was > 100 µM and the TGI (SF-295 CNS) was 42.8 µM. The TGI (ACHN renal) was 50.2 µM, the TGI (EKVX NSCLC) was 80.7 µM and the TGI (NCI/ADR-RES ovarian) was 50.5 µM. The TGI (BT-549 breast) was 61.4 µM, the TGI (DU-145 prostate) was 91.3 µM and the TGI (SW-620 colon) was > 100 µM. For the same compound, the TGI (HL-60(TB) leukemia) was > 100 µM and the TGI (MDA-MB-231 breast) was > 100 µM.
